Reference: publication PMC12612047 (Nature Communications, 2025)

System: CLMB-FLAG S-acylation in HEK293 Flp-In TReX cells
Assay: Metabolic pulse-chase labeling assay of dynamic CLMB S-acylation
Type: cell-based
Settings: 30-min chase

CCCCCCCCCC[C@@H]1C(=O)O[C@H]1CCc1ccc(OC)c(OC)c1 [PalmB, palmostatin B]
increase of palmitate incorporation into CLMB (17-ODYA to L-AHA ratio), PalmB vs DMSO: ~ 3 fold
